The source of these data is ChEMBL document CHEMBL5465560, “Selectivity Literature for EUbOPEN Chemogenomic Library” (2024).

The target in experiment [1] is Phosphatidylinositol 4,5-bisphosphate 3-kinase catalytic subunit alpha isoform (Homo sapiens) (UniProt P42336). Briefly: (§1) Selectivity interaction (KinomeScan (DiscoverX)) EUB0000655a PIK3CA. Particulars: at 10 µM.
The test system of experiment [2] is Phosphatidylinositol 4,5-bisphosphate 3-kinase catalytic subunit alpha isoform (Homo sapiens), P42336 [E545K]. Described as §1. The settings on record: at 10 µM.
Experiment [3] deals with Phosphatidylinositol 4,5-bisphosphate 3-kinase catalytic subunit alpha isoform (Homo sapiens), P42336 [H1047L]. Described as §1. Particulars: at 10 µM.
In experiment [4] the test system is Phosphatidylinositol 4,5-bisphosphate 3-kinase catalytic subunit alpha isoform (Homo sapiens), P42336 [I800L]. The experiment is described as §1. The settings on record: at 10 µM.
For experiment [5], the system named is Phosphatidylinositol 4,5-bisphosphate 3-kinase catalytic subunit alpha isoform (Homo sapiens), P42336 [Q546K]. Described as §1. Particulars: at 10 µM.
The target of experiment [6] is T1, Serine/threonine-protein kinase D1 (Homo sapiens) (UniProt Q15139).
T1 sequence (whole entry): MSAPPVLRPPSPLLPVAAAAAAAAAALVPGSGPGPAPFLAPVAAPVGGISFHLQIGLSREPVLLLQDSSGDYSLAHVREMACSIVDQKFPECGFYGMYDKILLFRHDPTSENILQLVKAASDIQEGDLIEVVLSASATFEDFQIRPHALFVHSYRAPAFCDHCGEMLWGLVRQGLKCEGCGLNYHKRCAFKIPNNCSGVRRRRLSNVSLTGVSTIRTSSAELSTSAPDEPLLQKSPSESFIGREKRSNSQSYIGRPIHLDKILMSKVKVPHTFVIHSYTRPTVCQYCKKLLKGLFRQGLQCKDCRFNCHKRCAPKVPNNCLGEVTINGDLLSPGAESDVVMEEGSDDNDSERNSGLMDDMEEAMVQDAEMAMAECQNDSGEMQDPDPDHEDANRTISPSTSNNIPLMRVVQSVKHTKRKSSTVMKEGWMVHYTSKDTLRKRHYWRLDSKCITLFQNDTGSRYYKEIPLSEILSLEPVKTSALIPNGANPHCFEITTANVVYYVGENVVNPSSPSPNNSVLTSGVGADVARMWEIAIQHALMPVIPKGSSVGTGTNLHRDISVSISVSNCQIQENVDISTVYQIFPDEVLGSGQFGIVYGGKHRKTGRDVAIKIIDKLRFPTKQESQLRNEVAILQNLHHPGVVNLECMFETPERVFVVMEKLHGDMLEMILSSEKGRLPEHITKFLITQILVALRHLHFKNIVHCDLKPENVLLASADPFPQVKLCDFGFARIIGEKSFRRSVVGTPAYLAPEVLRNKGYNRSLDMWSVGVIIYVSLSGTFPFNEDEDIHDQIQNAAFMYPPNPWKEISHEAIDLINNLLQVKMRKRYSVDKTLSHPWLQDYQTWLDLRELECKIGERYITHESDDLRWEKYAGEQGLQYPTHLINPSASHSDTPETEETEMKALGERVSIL
Kind of experiment: Selectivity interaction (KinomeScan (DiscoverX)) EUB0001619a PRKD1. The settings on record: at 1 µM.

The target in experiment [7] is T2, Eukaryotic elongation factor 2 kinase (Homo sapiens) (UniProt O00418).
T2 sequence (whole entry): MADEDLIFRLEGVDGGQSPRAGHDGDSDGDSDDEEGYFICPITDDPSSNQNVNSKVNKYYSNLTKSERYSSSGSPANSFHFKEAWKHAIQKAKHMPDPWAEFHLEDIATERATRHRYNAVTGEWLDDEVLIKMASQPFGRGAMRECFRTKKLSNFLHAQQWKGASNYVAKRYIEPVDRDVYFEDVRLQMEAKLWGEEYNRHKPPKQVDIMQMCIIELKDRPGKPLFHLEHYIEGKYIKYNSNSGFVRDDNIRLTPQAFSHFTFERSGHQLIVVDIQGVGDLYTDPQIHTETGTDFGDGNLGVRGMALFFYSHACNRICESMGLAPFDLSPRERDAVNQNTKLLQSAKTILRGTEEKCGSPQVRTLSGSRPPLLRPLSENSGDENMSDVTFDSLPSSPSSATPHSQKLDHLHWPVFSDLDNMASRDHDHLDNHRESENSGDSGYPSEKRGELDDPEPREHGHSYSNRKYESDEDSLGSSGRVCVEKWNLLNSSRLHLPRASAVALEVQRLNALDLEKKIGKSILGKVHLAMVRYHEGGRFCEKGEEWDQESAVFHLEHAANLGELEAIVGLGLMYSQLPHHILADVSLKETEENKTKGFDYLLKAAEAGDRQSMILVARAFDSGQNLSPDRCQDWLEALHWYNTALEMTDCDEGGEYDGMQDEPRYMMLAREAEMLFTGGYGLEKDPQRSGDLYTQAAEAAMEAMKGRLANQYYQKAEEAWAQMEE
Briefly: Selectivity interaction (Kinase panel (Invitrogen)) EUB0000639a EEF2K. The settings on record: at 200 nM.

Experiment [8] concerns the target Mitogen-activated protein kinase kinase kinase kinase 4 (Homo sapiens, UniProt O95819). Briefly: Selectivity interaction (Kinase screening (Nanosyn)) EUB0000604a MAP4K4.
For experiment [9], the target named is STE20-like serine/threonine-protein kinase (Homo sapiens, UniProt Q9H2G2). Kind of experiment: Selectivity interaction (KinomeScan (DiscoverX)) EUB0000092b SLK. Particulars: at 10 µM.
Chain of STE20-like serine/threonine-protein kinase (Q9H2G2 whole entry, looked up): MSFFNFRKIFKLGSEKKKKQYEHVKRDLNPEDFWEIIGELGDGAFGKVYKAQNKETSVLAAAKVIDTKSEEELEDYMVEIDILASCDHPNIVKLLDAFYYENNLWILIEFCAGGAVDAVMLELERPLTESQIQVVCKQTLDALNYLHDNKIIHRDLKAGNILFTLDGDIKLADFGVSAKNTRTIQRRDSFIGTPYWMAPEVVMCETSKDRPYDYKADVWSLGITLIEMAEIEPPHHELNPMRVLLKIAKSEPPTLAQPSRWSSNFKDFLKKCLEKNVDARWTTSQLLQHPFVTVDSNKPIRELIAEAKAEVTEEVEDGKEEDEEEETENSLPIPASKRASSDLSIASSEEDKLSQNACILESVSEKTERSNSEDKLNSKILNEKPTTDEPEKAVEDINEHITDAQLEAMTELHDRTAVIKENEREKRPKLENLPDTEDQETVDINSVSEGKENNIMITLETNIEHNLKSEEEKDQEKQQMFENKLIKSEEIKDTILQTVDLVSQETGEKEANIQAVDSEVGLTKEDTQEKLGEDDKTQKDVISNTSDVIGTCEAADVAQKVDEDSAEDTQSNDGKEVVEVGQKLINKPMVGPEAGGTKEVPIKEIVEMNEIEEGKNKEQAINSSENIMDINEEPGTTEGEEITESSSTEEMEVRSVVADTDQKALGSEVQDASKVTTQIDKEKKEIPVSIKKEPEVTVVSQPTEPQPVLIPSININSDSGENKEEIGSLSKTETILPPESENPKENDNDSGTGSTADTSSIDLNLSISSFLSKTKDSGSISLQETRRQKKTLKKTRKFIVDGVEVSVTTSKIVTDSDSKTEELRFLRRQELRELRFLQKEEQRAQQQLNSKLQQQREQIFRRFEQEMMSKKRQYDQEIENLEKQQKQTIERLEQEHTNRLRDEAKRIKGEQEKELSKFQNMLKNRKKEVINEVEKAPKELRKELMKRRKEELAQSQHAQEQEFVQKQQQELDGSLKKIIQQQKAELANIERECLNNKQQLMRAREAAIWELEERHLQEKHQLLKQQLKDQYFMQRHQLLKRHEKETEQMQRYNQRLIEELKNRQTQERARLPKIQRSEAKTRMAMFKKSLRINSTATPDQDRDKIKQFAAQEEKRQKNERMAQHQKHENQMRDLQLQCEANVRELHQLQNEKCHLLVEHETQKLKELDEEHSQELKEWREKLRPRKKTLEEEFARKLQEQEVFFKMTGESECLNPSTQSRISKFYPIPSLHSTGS

Chain of Phosphatidylinositol 4,5-bisphosphate 3-kinase catalytic subunit alpha isoform (Homo sapiens), P42336 [H1047L] (P42336 whole entry H1047L, canonical isoform): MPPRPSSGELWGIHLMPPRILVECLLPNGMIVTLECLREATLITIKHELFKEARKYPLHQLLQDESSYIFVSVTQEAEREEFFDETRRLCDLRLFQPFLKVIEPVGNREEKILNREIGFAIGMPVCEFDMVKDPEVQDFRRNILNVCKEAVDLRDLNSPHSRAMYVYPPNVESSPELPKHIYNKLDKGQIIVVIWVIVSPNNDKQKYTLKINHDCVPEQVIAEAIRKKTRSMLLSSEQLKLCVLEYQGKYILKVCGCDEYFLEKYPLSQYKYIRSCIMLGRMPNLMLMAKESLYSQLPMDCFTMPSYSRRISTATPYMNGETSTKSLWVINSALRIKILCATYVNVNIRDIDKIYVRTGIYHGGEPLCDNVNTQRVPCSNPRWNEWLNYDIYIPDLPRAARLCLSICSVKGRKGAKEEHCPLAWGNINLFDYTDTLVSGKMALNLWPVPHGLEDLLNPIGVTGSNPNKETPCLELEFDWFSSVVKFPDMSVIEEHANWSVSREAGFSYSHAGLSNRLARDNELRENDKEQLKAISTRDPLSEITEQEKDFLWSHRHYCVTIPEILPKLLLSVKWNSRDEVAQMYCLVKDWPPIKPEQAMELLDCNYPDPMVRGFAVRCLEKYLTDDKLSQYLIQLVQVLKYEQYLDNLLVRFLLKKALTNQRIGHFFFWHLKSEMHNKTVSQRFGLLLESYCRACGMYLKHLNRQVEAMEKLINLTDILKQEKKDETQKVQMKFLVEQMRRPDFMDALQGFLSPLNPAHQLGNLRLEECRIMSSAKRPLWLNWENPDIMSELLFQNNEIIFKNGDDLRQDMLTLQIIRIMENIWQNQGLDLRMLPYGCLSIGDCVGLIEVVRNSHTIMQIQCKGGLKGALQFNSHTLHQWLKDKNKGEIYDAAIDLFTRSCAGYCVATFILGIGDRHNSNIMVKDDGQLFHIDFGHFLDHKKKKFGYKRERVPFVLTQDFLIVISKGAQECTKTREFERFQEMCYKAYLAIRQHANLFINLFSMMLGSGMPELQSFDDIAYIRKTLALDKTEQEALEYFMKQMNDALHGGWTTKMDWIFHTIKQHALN
Chain of Phosphatidylinositol 4,5-bisphosphate 3-kinase catalytic subunit alpha isoform (Homo sapiens), P42336 [E545K] (P42336 whole entry E545K, canonical isoform): as the sequence (P42336 whole entry H1047L, canonical isoform) above, with E545K, L1047H counted along it
Chain of Phosphatidylinositol 4,5-bisphosphate 3-kinase catalytic subunit alpha isoform (Homo sapiens) (P42336 whole entry, canonical isoform): as the sequence (P42336 whole entry H1047L, canonical isoform) above, with L1047H counted along it
Chain of Mitogen-activated protein kinase kinase kinase kinase 4 (O95819 2-1239 limits assumed): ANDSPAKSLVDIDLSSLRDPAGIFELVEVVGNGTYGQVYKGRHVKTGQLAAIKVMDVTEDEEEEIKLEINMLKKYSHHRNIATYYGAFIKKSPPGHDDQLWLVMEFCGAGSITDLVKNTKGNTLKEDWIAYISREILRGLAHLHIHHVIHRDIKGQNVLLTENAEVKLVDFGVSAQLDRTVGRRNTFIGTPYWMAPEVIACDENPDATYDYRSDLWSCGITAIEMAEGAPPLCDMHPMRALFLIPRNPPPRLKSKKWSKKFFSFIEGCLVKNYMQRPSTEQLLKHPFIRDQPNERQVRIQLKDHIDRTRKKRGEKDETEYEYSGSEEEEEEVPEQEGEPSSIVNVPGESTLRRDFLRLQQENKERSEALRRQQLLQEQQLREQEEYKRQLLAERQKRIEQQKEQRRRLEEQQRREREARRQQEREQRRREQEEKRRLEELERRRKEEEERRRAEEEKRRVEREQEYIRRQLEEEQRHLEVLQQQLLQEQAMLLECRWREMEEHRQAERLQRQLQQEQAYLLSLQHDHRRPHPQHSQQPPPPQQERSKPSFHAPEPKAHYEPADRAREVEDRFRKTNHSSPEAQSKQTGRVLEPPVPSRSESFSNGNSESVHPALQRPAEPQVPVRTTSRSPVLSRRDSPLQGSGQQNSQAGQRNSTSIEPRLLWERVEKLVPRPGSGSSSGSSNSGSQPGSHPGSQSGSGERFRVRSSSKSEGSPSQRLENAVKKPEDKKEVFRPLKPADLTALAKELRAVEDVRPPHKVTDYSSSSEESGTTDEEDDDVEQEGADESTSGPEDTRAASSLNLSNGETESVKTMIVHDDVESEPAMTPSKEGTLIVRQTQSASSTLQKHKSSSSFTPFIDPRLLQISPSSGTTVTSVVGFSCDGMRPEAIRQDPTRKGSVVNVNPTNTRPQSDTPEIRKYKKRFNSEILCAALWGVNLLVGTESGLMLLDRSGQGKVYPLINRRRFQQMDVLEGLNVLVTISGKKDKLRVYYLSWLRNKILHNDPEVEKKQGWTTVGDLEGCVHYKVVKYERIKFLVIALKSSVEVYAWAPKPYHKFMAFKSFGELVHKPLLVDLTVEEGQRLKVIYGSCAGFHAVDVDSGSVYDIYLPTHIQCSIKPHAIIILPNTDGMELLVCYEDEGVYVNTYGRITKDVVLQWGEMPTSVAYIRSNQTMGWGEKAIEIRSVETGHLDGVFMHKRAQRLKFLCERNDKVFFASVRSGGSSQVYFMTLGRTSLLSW
Chain of Phosphatidylinositol 4,5-bisphosphate 3-kinase catalytic subunit alpha isoform (Homo sapiens), P42336 [I800L] (P42336 whole entry I800L, canonical isoform): as the sequence (P42336 whole entry H1047L, canonical isoform) above, with I800L, L1047H counted along it
Chain of Phosphatidylinositol 4,5-bisphosphate 3-kinase catalytic subunit alpha isoform (Homo sapiens), P42336 [Q546K] (P42336 whole entry Q546K, canonical isoform): as the sequence (P42336 whole entry H1047L, canonical isoform) above, with Q546K, L1047H counted along it

With `CN(C)CCOc1ccc(-c2nc(-c3ccncc3)c(-c3ccc4c(c3)CC/C4=N\O)[nH]2)cc1`, the % of control in experiment [1] stood at 85%; in experiment [2], 100%; in [3], 98%; in experiment [4], 81%; in [5], 81%. Turning to `N#Cc1cccc(-c2c[nH]c3ncnc(N4CCOCC4)c23)c1`, the % of control in [6] is 100%. As to `CC[C@@H]1[C@H](F)C(=O)N[C@@H]1COc1nccc2cc(C(N)=O)c(OC)cc12` [ZIMLOVISERTIB], the % of inhibition in experiment [7] amounted to 21.1%. In experiment [8], `Cc1cnc(Nc2ccc(F)cc2Cl)nc1-c1c[nH]c(C(=O)N[C@H](CO)c2cccc(Cl)c2)c1` displayed a % of inhibition of 18%. On to `CCC(=O)N1CCN(c2ccc(-n3c(=O)ccc4cnc5ccc(-c6cnc7ccccc7c6)cc5c43)cc2C(F)(F)F)CC1`, for which, in experiment [9], the % of control came to 94%.
